For the experiment, the target named is CYP2D6 (Homo sapiens, UniProt P10635). Put plainly: biochemical.

Where “and” joins values, the source holds several entries; their conditions need not be identical. Identical values can stand only once.

Consider one compound from patent US9833454B2, “Difluoromethoxy compound with low bioactivation potential for the reduction of beta-amyloid production” (BRISTOL-MYERS SQUIBB COMPANY, priority 2014, dated 2017).

As usually defined, the IC50 is the point on the concentration scale where inhibition reaches its midpoint. Higher therefore signals weaker potency in that assay.

Chain of CYP2D6 (P10635 whole entry): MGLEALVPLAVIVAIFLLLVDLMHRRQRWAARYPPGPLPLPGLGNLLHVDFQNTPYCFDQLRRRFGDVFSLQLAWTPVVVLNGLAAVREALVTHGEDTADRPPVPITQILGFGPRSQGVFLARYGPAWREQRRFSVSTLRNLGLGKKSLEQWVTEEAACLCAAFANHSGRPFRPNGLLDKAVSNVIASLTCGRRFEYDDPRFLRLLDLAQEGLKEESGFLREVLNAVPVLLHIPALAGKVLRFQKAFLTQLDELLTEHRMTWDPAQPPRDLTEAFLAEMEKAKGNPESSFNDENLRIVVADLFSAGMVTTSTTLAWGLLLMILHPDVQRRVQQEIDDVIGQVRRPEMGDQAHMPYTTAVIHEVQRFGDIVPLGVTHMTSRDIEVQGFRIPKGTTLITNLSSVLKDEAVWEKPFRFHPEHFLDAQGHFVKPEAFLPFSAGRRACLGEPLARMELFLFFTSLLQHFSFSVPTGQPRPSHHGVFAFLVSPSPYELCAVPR

In the case of `COCC(=O)O[C@]1(CCN(C)CCCc2nc3ccccc3[nH]2)CCc2cc(F)ccc2[C@@H]1C(C)C` [Mibefradil, reference compound], the IC50 was 1320 nM and 440 nM.
